Test results published in ChEMBL document CHEMBL1201862, “PubChem BioAssay data set” (2004).
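Briefly, cells in 96-well plates were exposed to five compound concentrations for 48 h, and endpoints were estimated by linear interpolation. GI50: concentration for 50% inhibition of growth.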 Active and inactive are the calls of the source. Rule as the data show it: active = GI50 up to about 1.1 µM and inactive = higher.

Assays:
Assay in all cases: NCI anticancer screen, dose series, 48 h
786-0 = system: 786-0
A498 = system: A498
A549 = system: A549
ACHN = system: ACHN
BT-549 = system: BT-549
CAKI-1 = system: CAKI-1
CCRF-CEM = system: CCRF-CEM
COLO 205 = system: COLO 205
DLD-1 = system: DLD-1
DMS-114 = system: DMS-114
DMS-273 = system: DMS-273
DU-145 = system: DU-145
EKVX = system: EKVX
HCC 2998 = system: HCC 2998
HCT-116 = system: HCT-116
HCT-15 = system: HCT-15
HL-60 = system: HL-60
HOP-62 = system: HOP-62
HOP-92 = system: HOP-92
HT-29 = system: HT-29
Hs-578T = system: Hs-578T
IGROV-1 = system: IGROV-1
K562 = system: K562
KM-20L2 = system: KM-20L2
KM12 = system: KM12
LOX IMVI = system: LOX IMVI
LXFL 529 = system: LXFL 529
M14 = system: M14
M19-MEL = system: M19-MEL
MCF7 = system: MCF7
MDA-MB-231 = system: MDA-MB-231
MDA-MB-435 = system: MDA-MB-435
MDA-N = system: MDA-N
MOLT-4 = system: MOLT-4
Malme-3M = system: Malme-3M
NCI-H226 = system: NCI-H226
NCI-H23 = system: NCI-H23
NCI-H460 = system: NCI-H460
NCI-H522 = system: NCI-H522
NCI/ADR-RES = system: NCI/ADR-RES
OVCAR-3 = system: OVCAR-3
OVCAR-4 = system: OVCAR-4
OVCAR-5 = system: OVCAR-5
OVCAR-8 = system: OVCAR-8
PC-3 = system: PC-3
RPMI-8226 = system: RPMI-8226
RXF 393 = system: RXF 393
SF-268 = system: SF-268
SF-295 = system: SF-295
SF-539 = system: SF-539
SK-MEL-28 = system: SK-MEL-28
SK-MEL-2 = system: SK-MEL-2
SK-MEL-5 = system: SK-MEL-5
SK-OV-3 = system: SK-OV-3
SN12C = system: SN12C
SNB-19 = system: SNB-19
SNB-75 = system: SNB-75
SNB-78 = system: SNB-78
SR = system: SR
SW-620 = system: SW-620
T47D = system: T47D
TK-10 = system: TK-10
U-251 = system: U-251
UACC-257 = system: UACC-257
UACC-62 = system: UACC-62
UO-31 = system: UO-31
XF498 = system: XF498
HOP-18 = system: HOP-18

Measured: GI50

Cc1nc2cc(/N=N/c3c(O)ccc4ccccc34)ccc2[nH]1
inactive: 786-0 22 µM | A498 > 55 µM | A549 44.5 µM | ACHN 32.3 µM | BT-549 27.2 µM | CAKI-1 26.6 µM | CCRF-CEM 16.1 µM | COLO 205 29.5 µM | DLD-1 24 µM | DMS-114 25.8 µM | DMS-273 19.4 µM | DU-145 36 µM | EKVX > 49.9 µM | HCC 2998 > 50.5 µM | HCT-116 23.3 µM | HL-60 15.1 µM | HOP-62 > 64.7 µM | HOP-92 24 µM | HT-29 40.6 µM | Hs-578T 28.2 µM | IGROV-1 > 45.3 µM | K562 23.9 µM | KM-20L2 > 100 µM | KM12 25.4 µM | LOX IMVI 18.5 µM | LXFL 529 19.9 µM | M14 38.4 µM | M19-MEL 23.2 µM | MCF7 21.2 µM | MDA-MB-231 27.8 µM | MDA-MB-435 23.1 µM | MDA-N 17 µM | MOLT-4 21 µM | Malme-3M > 51.2 µM | NCI-H226 > 62.2 µM | NCI-H23 > 62.2 µM | NCI-H460 34.8 µM | NCI-H522 22.8 µM | NCI/ADR-RES 24.3 µM | OVCAR-3 25.2 µM | OVCAR-4 18.8 µM | OVCAR-5 > 75.5 µM | OVCAR-8 27.4 µM | PC-3 21 µM | RPMI-8226 24.3 µM | RXF 393 > 42.4 µM | SF-268 > 68.5 µM | SF-295 41.1 µM | SF-539 26.7 µM | SK-MEL-28 98.6 µM | SK-MEL-2 42.2 µM | SK-MEL-5 31.9 µM | SK-OV-3 > 100 µM | SN12C 36.9 µM | SNB-19 > 96.4 µM | SNB-75 > 72.1 µM | SNB-78 83 µM | SR 24.2 µM | SW-620 32.4 µM | T47D 21 µM | TK-10 > 76.2 µM | U-251 27.3 µM | UACC-257 24.8 µM | UACC-62 46.3 µM | UO-31 45.1 µM
32.3 µM: HCT-15

N#C/C(=C/c1ccc[nH]1)P(=O)(O)O
> 100 µM: HCT-15
inactive: 786-0 > 100 µM | A549 > 100 µM | ACHN > 100 µM | CAKI-1 > 100 µM | CCRF-CEM > 100 µM | COLO 205 > 100 µM | DLD-1 > 100 µM | DMS-114 > 100 µM | DMS-273 > 100 µM | EKVX > 100 µM | HCC 2998 > 100 µM | HCT-116 > 100 µM | HL-60 > 100 µM | HOP-62 > 100 µM | HOP-92 > 100 µM | HT-29 > 100 µM | K562 > 100 µM | KM-20L2 > 100 µM | KM12 > 100 µM | LOX IMVI > 100 µM | LXFL 529 > 100 µM | M14 > 100 µM | M19-MEL > 100 µM | MOLT-4 > 100 µM | Malme-3M > 100 µM | NCI-H226 > 100 µM | NCI-H23 > 100 µM | NCI-H460 > 100 µM | NCI-H522 > 100 µM | OVCAR-3 > 100 µM | OVCAR-4 > 100 µM | OVCAR-5 > 100 µM | OVCAR-8 > 100 µM | RPMI-8226 > 100 µM | RXF 393 > 100 µM | SF-268 > 100 µM | SF-295 > 100 µM | SF-539 > 100 µM | SK-MEL-28 > 100 µM | SK-MEL-2 > 100 µM | SK-MEL-5 > 100 µM | SK-OV-3 > 100 µM | SN12C > 100 µM | SNB-19 > 100 µM | SNB-75 80.4 µM | SNB-78 > 100 µM | SR > 100 µM | SW-620 > 100 µM | TK-10 > 100 µM | U-251 > 100 µM | UACC-257 > 100 µM | UACC-62 > 100 µM | UO-31 > 100 µM | XF498 > 100 µM

COC(=O)c1cc(Cl)ccc1NC(=O)C1CCCCC1
inactive: 786-0 > 100 µM | A549 > 100 µM | ACHN > 100 µM | COLO 205 > 100 µM | DMS-114 > 100 µM | DMS-273 > 100 µM | EKVX > 100 µM | HCC 2998 > 100 µM | HCT-116 > 100 µM | HOP-92 22.8 µM | HT-29 > 100 µM | K562 > 100 µM | KM-20L2 > 100 µM | KM12 > 100 µM | LXFL 529 > 100 µM | MOLT-4 23.2 µM | Malme-3M > 100 µM | NCI-H226 > 100 µM | NCI-H23 > 100 µM | OVCAR-5 > 100 µM | OVCAR-8 > 100 µM | RPMI-8226 > 100 µM | RXF 393 33.1 µM | SF-268 48.1 µM | SF-295 > 100 µM | SF-539 > 100 µM | SK-MEL-28 > 100 µM | SK-MEL-2 > 100 µM | SN12C 74.6 µM | SNB-19 > 100 µM | SNB-78 > 100 µM | SR > 100 µM | SW-620 > 100 µM | TK-10 92.7 µM | U-251 > 100 µM | UACC-257 > 100 µM | UO-31 17.6 µM
> 100 µM: HCT-15

CC(=O)O[C@]12CCCCCC1C1(O)C(O)CCCCC12 (some centres not stated)
> 100 µM: HCT-15
inactive: 786-0 > 100 µM | A549 > 100 µM | ACHN > 100 µM | CCRF-CEM > 100 µM | COLO 205 > 100 µM | DMS-114 > 100 µM | DMS-273 > 100 µM | EKVX > 100 µM | HL-60 > 100 µM | HOP-62 > 100 µM | HT-29 > 100 µM | K562 > 100 µM | KM-20L2 > 100 µM | KM12 > 100 µM | LOX IMVI > 100 µM | LXFL 529 > 100 µM | M14 > 100 µM | M19-MEL > 100 µM | MOLT-4 > 100 µM | Malme-3M > 100 µM | NCI-H226 > 100 µM | NCI-H23 > 100 µM | NCI-H460 > 100 µM | NCI-H522 > 100 µM | OVCAR-4 > 100 µM | OVCAR-8 > 100 µM | RPMI-8226 > 100 µM | RXF 393 > 100 µM | SF-268 > 100 µM | SF-295 > 100 µM | SK-MEL-28 > 100 µM | SK-MEL-2 > 100 µM | SK-MEL-5 > 100 µM | SK-OV-3 > 100 µM | SN12C > 100 µM | SNB-19 > 100 µM | SNB-75 > 100 µM | SNB-78 > 100 µM | SR > 100 µM | SW-620 > 100 µM | TK-10 > 100 µM | U-251 > 100 µM | UACC-257 > 100 µM | UACC-62 > 100 µM | UO-31 > 100 µM | XF498 > 100 µM

CN(C)c1ccc(/C=C(/NC(=O)c2ccccc2)c2nc3cc(Cl)ccc3[nH]2)cc1
16.6 µM: HCT-15
inactive: 786-0 27.8 µM | A498 72.3 µM | A549 63.2 µM | ACHN 48.9 µM | CAKI-1 61.7 µM | CCRF-CEM 22.4 µM | COLO 205 20.7 µM | DLD-1 34.4 µM | DMS-273 32.4 µM | EKVX 87.3 µM | HCC 2998 18.5 µM | HCT-116 37.8 µM | HL-60 16 µM | HOP-18 2.42 µM | HOP-62 > 100 µM | HOP-92 > 100 µM | HT-29 28.6 µM | IGROV-1 > 100 µM | K562 19 µM | KM-20L2 27.7 µM | KM12 15.6 µM | LOX IMVI 18.3 µM | LXFL 529 30.1 µM | M14 32.7 µM | M19-MEL 27.5 µM | MOLT-4 20.9 µM | Malme-3M 23.1 µM | NCI-H226 30.8 µM | NCI-H23 8.51 µM | NCI-H460 33.6 µM | NCI-H522 22 µM | OVCAR-4 18.6 µM | OVCAR-5 26 µM | OVCAR-8 35.3 µM | RPMI-8226 19.1 µM | RXF 393 30.2 µM | SF-268 > 100 µM | SF-295 28 µM | SF-539 55.8 µM | SK-MEL-28 83.9 µM | SK-MEL-2 37.1 µM | SK-MEL-5 21.6 µM | SK-OV-3 52.6 µM | SN12C 47.9 µM | SNB-19 45.1 µM | SNB-75 17.9 µM | SNB-78 63.1 µM | SR 30.3 µM | SW-620 10.4 µM | TK-10 64.4 µM | U-251 35.5 µM | UACC-257 20.3 µM | UACC-62 36 µM | UO-31 28.8 µM
active: OVCAR-3 0.0123 µM
